Columns and labels:
Assay type in all cases: cell-based
[1] = target: T1, CCL22 (Homo sapiens, UniProt O00626); assay: Scratch wound assay, CCL22-mediated HaCat cell migration; settings: HaCat cells, 72 h, read-out: inhibition of CCL22-mediated wound closure
T1 construct: codes for the mature CCL17 or CCL22 with an N-terminal thioredoxin-hexahistidin (TRX- (His)6) tag; thioredoxin (TRX) (N, cleaved yes); (His)6 (N, cleaved yes); made in house; host or cells: E. coli BL21 (DE3)
T1 sequence (O00626 25-93): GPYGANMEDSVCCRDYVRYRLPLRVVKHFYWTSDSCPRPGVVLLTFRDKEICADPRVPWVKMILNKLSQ
Method: soluble formazan dye which can be detected by absorbance at 420-480nm. HUT78 T cells (or HaCat cells) were seeded on 24-well plates (200,000 cells per well) and were incubated […]
concentration ≤1% on cells). The background control was reserved as one well containing the culture medium only. The plates were incubated for 72h at 37°C. Three days later, the medium containing the neutraligands was removed, and WST-1 reagent (1:10 final dilution) (Ozyme) was added to each well for a 2h incubation at 37°C as the manufacturer’s recommendation. The plates were shaken and absorbance was measured at 450nm (reference wavelength 690nm) against the background control, using a multiwell plate reader (EnVision, Perkin Elmer). Assays were performed as three independent replicates.
In vitro cell migration assay (scratch wound test) […]
the wound closure was determined as the difference between wound width at times 0 and 72h. […]
doses). After 24h, cytotoxicity was evaluated in the wells using the Alamar Blue method. […]
before AA treatment. The activity of COX2 was determined by measuring PGE2 (Cayman) in the supernatants by EIA. […]

[2] = target: T2, mouse CCL22 (Mus musculus, UniProt O88430); assay: Calcium responses induced by mouse CCL22, neutraligand protocol, CCR4+Gqi5+ HEK cells; settings: 5 nM mouse CCL22 preincubated 1 h with compound; read-out: IC50, inhibition of mouse CCL22-evoked calcium responses
T2 construct: purchased R&D systems
Method: (§1) Dye loaded cells were placed in the FlexStation 3 (Molecular Devices). Calcium mobilization was measured at 401 and 475 nm emission fluorescence after excitation at 355 nm. For the primary screening, the ligands (50μl of chemokine mixed with DMSO or test compounds) were added to the cells at 40 s, followed by digitonin addition (50μl) at 100 s to the cells. Molecules were screened at a final concentration of 2μg/ml with 5 nM CCL17 or CCL22. […] Raw fluorescence data (at 401 and 475 nm) were exported and the ratio 401/475 was calculated. The calcium response values (height of peak response over baseline) were determined. Hits were selected by comparing the response amplitude at the time of the chemokine addition ± test compound. The Z’ factor[29] was calculated according to the following equation: Z’ = 1-(3SD+ + 3SD−)/|Ave+ − Ave−|, where SD+ and Ave+ are respectively the standard deviation and the mean value of the positive controls (chemokine + DMSO), while SD− and Ave− are respectively the standard deviation and the mean value of the negative controls (HEPES-BSA (0.1%) mixed with DMSO, or cells mixed with C-021). Hit molecules were confirmed by performing concentration-response curves and their half maximal inhibitory concentration (IC50) values were calculated using the Kaleidagraph software. […]
(§2) neutraligand. Human (○) or mouse (●) CCL17 (5nM) was preincubated with increasing […]

[3] = target: T3, mouse CCL17 (Mus musculus, UniProt Q9WUZ6); assay: Calcium responses induced by mouse CCL17, neutraligand protocol, CCR4+Gqi5+ HEK cells; settings: 5 nM mouse CCL17 preincubated 1 h with compound; read-out: IC50, inhibition of mouse CCL17-evoked calcium signaling
T3 construct: purchased R&D systems
Method: as §1, §2

[4] = target: T4, COX2 (Homo sapiens, UniProt P35354); assay: COX2 mediated PGE2 release in LPS-treated primary monocytes; settings: 100 µM, monocytes + LPS + arachidonic acid
T4 construct: endogenous in cells; host or cells: primary human monocytes treated with LPS
Method: the wound closure was determined as the difference between wound width at times 0 and 72h. This experiment was repeated three times.
Human primary monocytes were isolated from buffy coats of healthy human blood donors and seeded in 24-well plates (500,000 cells/ml in 1ml) for COX-1/2 activity or 96-well plates for cell viability experiments.
Cells were seeded in 96 well plates (5,000 cells/well in 200µl) for cytotoxicity testing (Alamar […]
doses). After 24h, cytotoxicity was evaluated in the wells using the Alamar Blue method. NaF (250µg/ml) was used as a control in this experiment.
Cyclooxygenase (COX) activity
COX1 mediated prostaglandin E2 (PGE2) release. Monocytes were treated with arachidonic […]
were then collected for the determination of PGE2 by enzyme immunoassay (EIA) […]
COX2 mediated prostaglandin E2 (PGE2) release. Monocytes were incubated with LPS (10U/ml) for 24h to induce COX2 protein synthesis. After renewal of medium (serum free), […]
before AA treatment. The activity of COX2 was determined by measuring PGE2 (Cayman) in the supernatants by EIA. Aspirin (10µM) and diclofenac (10µM) were used as control […]
NaF (250µg/ml) was used as a control (relative light unit, r.l.u). (c) Monocytes were treated […]
GPN136 (grey bars). The activity of COX1 was determined by measuring prostaglandin E2 (PGE2). […]
of COX2 was determined by measuring PGE2. […]

T2 sequence (O88430 25-92): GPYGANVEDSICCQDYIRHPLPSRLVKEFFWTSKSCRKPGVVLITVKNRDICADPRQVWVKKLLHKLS
T3 sequence (Q9WUZ6 24-93): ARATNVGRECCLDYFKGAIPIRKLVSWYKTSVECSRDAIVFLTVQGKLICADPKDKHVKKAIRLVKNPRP
T4 sequence (P35354 18-604): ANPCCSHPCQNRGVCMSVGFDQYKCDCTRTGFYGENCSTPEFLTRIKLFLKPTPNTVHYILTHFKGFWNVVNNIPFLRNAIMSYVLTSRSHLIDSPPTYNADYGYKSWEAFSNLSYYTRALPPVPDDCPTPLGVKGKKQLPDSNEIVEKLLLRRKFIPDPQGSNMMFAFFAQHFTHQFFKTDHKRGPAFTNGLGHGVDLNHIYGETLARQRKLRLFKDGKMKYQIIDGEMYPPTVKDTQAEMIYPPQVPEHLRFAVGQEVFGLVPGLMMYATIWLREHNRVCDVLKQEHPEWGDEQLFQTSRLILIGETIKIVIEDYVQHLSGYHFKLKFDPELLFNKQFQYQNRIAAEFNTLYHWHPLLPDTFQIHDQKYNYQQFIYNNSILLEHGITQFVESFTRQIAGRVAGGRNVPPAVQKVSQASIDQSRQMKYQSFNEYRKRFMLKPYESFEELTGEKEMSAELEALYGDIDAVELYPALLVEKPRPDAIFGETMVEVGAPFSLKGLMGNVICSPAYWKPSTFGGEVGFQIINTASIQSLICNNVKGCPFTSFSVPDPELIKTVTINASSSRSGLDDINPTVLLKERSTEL

Row | inhibition at 10 µM [1] | IC50 [2] | Structure (SMILES) | IC50 [3] | effect on COX2 activity (PGE2) [4]
1 | 85.2% | 8.1 ± 1.5 µM | O=C(OCC(O)CO)c1ccccc1O (stereo not shown) [GPN136, 2,3-dihydroxypropyl 2-hydroxybenzoate] | – | –
2 | – | – | CC(C)=CCn1cnc2c1c(=O)n(C)c(=O)n2C [GPN279, 1,3-dimethyl-7-(3-methylbut-2-enyl)-1H-purine-2,6(3H, 7H)-dione] | 5.2 ± 0.9 µM | no effect

From PMC4595804, “A strategy to discover decoy chemokine ligands with an anti-inflammatory activity” (Scientific Reports, 2015)
